Data reported in a compilation of properties of binary mixtures.
Blank lines part the entries; values can stand above or below the compound they belong to.

Assay: xn = mol fraction of the nth substance listed

SMILES: OCC(F)(F)F + COP(=O)([O-])OC.Cn1cc[n+](C)c1
viscosity (298.15 K, 101 kPa, x2 = 0.1815): 6.5 mPa·s
viscosity (313.15 K, 101 kPa, x2 = 0.1815): 4.6 mPa·s
viscosity (313.15 K, 101 kPa, x2 = 0.4904): 24.5 mPa·s
viscosity (313.15 K, 101 kPa, x2 = 0.803): 70.5 mPa·s
viscosity (333.15 K, 101 kPa, x2 = 0.1815): 3.1 mPa·s
viscosity (333.15 K, 101 kPa, x2 = 0.4904): 12.8 mPa·s

SMILES: CCCCCC[n+]1ccn(C)c1.F[P-](F)(F)(F)(F)F + O
viscosity (298 K, 101 kPa, x2 = 0.1334): 452 mPa·s

SMILES: CCCC[N+](CCCC)(CCCC)CCCC.[Cl-] + OCC(O)CO
viscosity (318.15 K, 100 kPa, x1 = 0.333): 57.8 mPa·s

viscosity (373 K, 100 kPa, x1 = 0.0082): 47 mPa·s
viscosity (373 K, 100 kPa, x1 = 0.0829): 82 mPa·s
viscosity (373 K, 100 kPa, x1 = 0.1256): 96 mPa·s
SMILES: O=C[C@H](O)[C@@H](O)[C@H](O)[C@H](O)CO + CC[n+]1ccn(C)c1.[Cl-]
